The results in this text go back to patent US10597366B2, “Aryl ethers and uses thereof” (Peloton Therapeutics, Inc., priority 2013, dated 2020).

The subject of one assay is human VEGFA. Put plainly: Plasma human VEGFA level of 786-O xenograft bearing mice. The following applies: 10, 30 and 100 mg/kg, three times at 12 hour intervals, prior to vs 12 h post treatment, FIG. 5. It is filed as in vivo. On the technique in general: In xenograft studies the graft and the host belong to different species.
Assay [1] relates to 786-O-Hif-Luc cells (luciferase gene driven by multiple HIF responsive elements). Put plainly: Luciferase Assay. It is filed as cell-based. To be noted: 24 h, 786-O-Hif-Luc cells, about 24 hours; read-out: Mean Luciferease EC50. The method, then:
A pool of infected cells were then selected against 2 μg/mL of puromycin (P8833, Sigma) for 10 days followed by limited dilution to select single clones.
Each concentration was tested in triplicate. After about 24 hours, luciferase activity was determined using ONE-Glo Luciferase Assay Reagent (E6110, Promega) following the manufacturer's recommended procedure. EC50 were calculated by using Dotmatics software.

Assay [2] concerns EPO and PGK1 mRNA in mouse kidney. The assay can be described thus: In vivo PK/PD study: mouse kidney mRNA levels by qRT-PCR. Also noted: species or system SCID/Biege mice. The following applies: oral gavage three times at 12 hour intervals; 10, 30 or 100 mg/kg. The procedure: About 5×10^6 renal cell carcinoma 786-O tumor cells (ATCC® CRL-1932, VHL and HIF-1α null cell line) in PBS and Matrigel (1:1 in volume) were injected subcutaneously at the right flanks of SCID/Biege mice at 6-7 weeks of age for xenograft development. When the xenografts reached about 450 mm^3 in size, the tumor bearing mice were randomly divided into 4 groups (n=4). Plasma was collected prior to treatment by retro-orbital bleeding. […] All animals were sacrificed at 12 hours post last dose. Tumor, kidney, and plasma were collected from each animal. Total RNA was extracted from the tumors and kidneys. The mRNA levels of HIF-1α, HIF-2α and their respective target genes were determined by qRT-PCR (FIG. 1).
(In general: In qPCR the cycle at which signal appears reflects the starting amount.)

The subject of assay [3] is renal cell carcinoma 786-O xenograft. Put plainly: In vivo efficacy study, 786-O xenograft. Also noted: species or system SCID/Biege mice. The following applies: all treatment groups; t-Test; Compound 15 20 days, Compound 163 28 days.
Assay [4] concerns VEGFA concentration in medium of 786-O cells. Put plainly: VEGF ELISA Assay. Format: cell-based. The following applies: Homo sapiens, 786-0, 786-O cells; read-out: Mean VEGF ELISA EC50. The procedure:
Each concentration had duplicated wells. About 20 hours later, medium was removed by suction and each well was supplied with 180 μL of growth medium. About 20 μl freshly-made 10× compound stocks were added to each well. […] The EC50 was calculated by GraphPad Prism using the dose-response-inhibition (four parameter) equation. The cell seeded plate was then subjected to CellTiter-Glo luminescence cell viability assay (Promega) by adding 50 μL of Celltiter Glo reagent into each well and shaking the plate for 8 minutes at 550 rpm (Thermomixer R, Eppendorf) then read luminescence signal in plate reader (3 second delay, 0.5 second/well integration time, Synergy 2 multi Detection Microplate reader) immediately.
(In general: ELISA stands for enzyme-linked immunosorbent assay.)

For orientation: EC50 means the concentration needed to bring the measured effect to its halfway point. Turning to `N#Cc1cc(F)cc(Oc2ccc(S(=O)(=O)C(F)F)c3c2CC(F)(F)[C@H]3O)c1` [Compound 15, 3-[(1S)-7-(difluoromethylsulfonyl)-2,2-difluoro-1-hydroxy-indan-4-yl]oxy-5-fluoro-benzonitrile], the “plasma level of human VEGFA” value in the assay on human VEGFA is “reduced”. The EC50 in assay [1] is 7 nM. Further, in assay [2], the “Mouse kidney EPO mRNA level (HIF-2α specifically regulated gene)” value was “reduced” and the “Mouse kidney PGK1 mRNA level (HIF-1α targeted gene)” value was “remained unchanged”. In assay [3], the “Tumor size versus vehicle” value is listed as “statistically significant reduction”.
For `CS(=O)(=O)c1ccc(Oc2cncc(C#N)c2)c2c1[C@H](O)C(F)(F)[C@@H]2F` [Compound 342, 5-(((1S,3R)-2,2,3-trifluoro-1-hydroxy-7-(methylsulfonyl)-2,3-dihydro-1H-inden-4-yl)oxy)nicotinonitrile], the EC50 in assay [1] was determined as 91 nM; in assay [4] it was 52 nM.
For `O=S(=O)(c1ccc(Oc2cc(F)cc(Cl)c2)c2c1[C@H](O)C(F)(F)C2)C(F)F` [Compound 158, (1S)-4-(3-Chloro-5-fluoro-phenoxy)-7-(difluoromethylsulfonyl)-2,2-difluoro-indan-1-ol], in that order: 5 nM and 6 nM.
On to `O=[N+]([O-])c1c(Oc2cc(F)cc(Cl)c2)ccc(C(F)(F)F)c1Cl` [Compound 203, 2-Chloro-4-(3-chloro-5-fluorophenoxy)-3-nitro-1-(trifluoromethyl)benzene], for which the EC50 in assay [1] came to 630 nM; in assay [4], 700 nM.
Regarding `CS(=O)(=O)c1ccc(Oc2cc(F)cc(F)c2)c2c1[C@H](O)C(F)(F)C2` [Compound 161, (S)-4-(3,5-Difluorophenoxy)-2,2-difluoro-7-(methylsulfonyl)-2,3-dihydro-1H-inden-1-ol], the EC50 in assay [1] was found to be 4 nM; in assay [4], 11 nM.
As to `O=S(=O)(c1ccc(Oc2cc(F)c[n+]([O-])c2)c2c1[C@H](O)C(F)(F)C2)C(F)(F)F` [Compound 310, (S)-3-((2,2-difluoro-1-hydroxy-7-((trifluoromethyl)sulfonyl)-2,3-dihydro-1H-inden-4-yl)oxonio)-5-fluoropyridine 1-oxide], the EC50 stood at 110 nM in assay [1] and 140 nM in assay [4].
`N#Cc1cc(Oc2ccc(S(=O)(=O)C(F)(F)F)c3c2CC(F)(F)[C@H]3O)c[n+]([O-])c1` [Compound 267, (S)-3-cyano-5-((2,2-difluoro-1-hydroxy-7-((trifluoromethyl)sulfonyl)-2,3-dihydro-1H-inden-4-yl)oxy)pyridine 1-oxide]: the 50% effective concentration (EC50) was 160 nM in assay [1] and 830 nM in assay [4].
In the case of `O=S(=O)(c1ccc(Oc2cc(F)cc(F)c2)c2c1C(O)C(F)(F)C2)C(F)F` (stereo not shown) [Compound 9, 7-(difluoromethylsulfonyl)-4-(3,5-difluorophenoxy)-2,2-difluoro-indan-1-ol], the EC50 in assay [1] worked out at 9 nM; in assay [4], 6 nM.
Take `O=S(=O)(c1ccc(Oc2cncc(Cl)c2)c2c1[C@H](O)C(F)(F)C2)C(F)(F)F` [Compound 186, (S)-4-((5-Chloropyridin-3-yl)oxy)-2,2-difluoro-7-((trifluoromethyl)sulfonyl)-2,3-dihydro-1H-inden-1-ol]: the EC50 in assay [1] was determined as 11 nM; in assay [4], 13 nM.
The matching figures for `N#Cc1cccc(Oc2ccc(S(=O)(=O)C(F)(F)F)c(C#N)c2Br)c1` [Compound 99, 2-Bromo-3-(3-cyanophenoxy)-6-((trifluoromethyl)sulfonyl)benzonitrile]: 420 nM and 550 nM.
`CS(=O)(=NC#N)c1ccc(Oc2cc(F)cc(C#N)c2)c2c1[C@H](O)C(F)(F)[C@@H]2F` (single isomer, unassigned) [Compound 316]: the concentration for a half-maximal effect (EC50) in assay [1] was found to be 12 nM; in assay [4], 17 nM.
For `O=S(=O)(CF)c1ccc(Oc2cc(F)c(F)c(F)c2)c2c1[C@H](O)C(F)(F)C2` [Compound 188, (S)-2,2-Difluoro-7-((fluoromethyl)sulfonyl)-4-(3,4,5-trifluorophenoxy)-2,3-dihydro-1H-inden-1-ol], the EC50 was determined as 51 nM in assay [1] and 88 nM in assay [4].
For the compound `CS(=O)(=O)c1ccc(Oc2cncc(C#N)c2)c2c1[C@H](O)C(F)(F)C2` [Compound 325, (S)-5-((2,2-Difluoro-1-hydroxy-7-(methylsulfonyl)-2,3-dihydro-1H-inden-4-yl)oxy)nicotinonitrile], the results for the EC50 in assay [1] and in assay [4] were 490 nM and 150 nM, respectively.
For `N#Cc1cncc(Oc2ccc(C(F)(F)F)c3c2CC(F)(F)[C@H]3O)c1` [Compound 303, 5-[(1S)-2,2-difluoro-1-hydroxy-7-(trifluoromethyl)indan-4-yl]oxypyridine-3-carbonitrile], in that order: 35 nM and 64 nM.
In the case of `O=S(=O)(c1ccc(Oc2cc(F)cc(F)c2)c2c1[C@H](O)CC2)C(F)(F)F` [Compound 55, (R)-4-(3,5-Difluorophenoxy)-7-((trifluoromethyl)sulfonyl)-2,3-dihydro-1H-inden-1-ol], the values for the EC50 in assay [1] and in assay [4] were 32 nM and 35 nM, respectively.
For `O=S(=O)(c1ccc(Oc2cc(F)cc(Cl)c2)c2c1C(O)C(F)(F)C2)C(F)F` (stereo not shown) [Compound 8, 4-(3-chloro-5-fluoro-phenoxy)-7-(difluoromethylsulfonyl)-2,2-difluoro-indan-1-ol], in that order: 17 nM and 33 nM.
For `O=S(=O)(c1ccc(Oc2ccc(F)c(F)c2)c2c1[C@H](O)C(F)(F)C2)C(F)F` [Compound 196, (S)-7-((Difluoromethyl)sulfonyl)-4-(3,4-difluorophenoxy)-2,2-difluoro-2,3-dihydro-1H-inden-1-ol], in that order: 46 nM and 47 nM.
With `O=S(=O)(c1ccc(Oc2ccc(F)c(F)c2)c2c1[C@H](O)C(F)(F)C2)C(F)(F)F` [Compound 233, (S)-4-(3,4-Difluorophenoxy)-2,2-difluoro-7-((trifluoromethyl)sulfonyl)-2,3-dihydro-1H-inden-1-ol], the EC50 in assay [1] came out at 13 nM; in assay [4], 15 nM.
With `Cc1c(S(=O)(=O)C(F)F)ccc(Oc2cc(F)cc(F)c2)c1C#N` [Compound 34, 3-((Difluoromethyl)sulfonyl)-6-(3,5-difluorophenoxy)-2-methylbenzonitrile], the results for the half-maximal effective concentration (EC50) in assay [1] and in assay [4] were 520 nM and 460 nM, respectively.
For `O=S(=O)(CF)c1ccc(Oc2cc(F)cc(F)c2)c2c1[C@H](O)C(F)(F)C2` [Compound 64, (S)-4-(3,5-Difluorophenoxy)-2,2-difluoro-7-((fluoromethyl)sulfonyl)-2,3-dihydro-1H-inden-1-ol], the figures for the EC50 in assay [1] and in assay [4] were 5 nM and 1 nM, respectively.
